In brackets after ≈: the same amount, converted by molar mass.
Test system: not listed separately
Test: Kinetic solubility of compound at pH 7.4
Settings: buffer
For `CC/C(=C(/c1ccc(/C=C/C(=O)O)cc1)c1ccc2[nH]ncc2c1)c1ccc(F)cc1Cl` [BRILANESTRANT], the solubility kinetic was 19 µM (≈ 8.49 µg/mL). `C[C@@H]1Cc2c([nH]c3cccc(F)c23)[C@@H](c2c(F)cc(NC3CN(CCCF)C3)cc2F)N1CC(F)(F)CO` gave a solubility kinetic of 92 µM (≈ 49.7 µg/mL). For `C[C@@H]1Cc2c([nH]c3ccccc23)[C@@H](c2c(F)cc(N[C@H]3CCN(CCCF)C3)cc2F)N1CC(F)(F)CO`, the solubility kinetic was 80 µM (≈ 42.9 µg/mL). For `C[C@@H]1Cc2c([nH]c3ccccc23)[C@@H](c2c(F)cc(NCCNCCCF)cc2F)N1CC(F)(F)CO`, the solubility kinetic was 199 µM (≈ 102 µg/mL). For `C[C@@H]1Cc2c([nH]c3ccccc23)[C@@H](c2c(F)cc(NC3CN(CCC(F)F)C3)cc2F)N1CC(F)(F)CO`, the solubility kinetic was 42 µM (≈ 22.7 µg/mL). With `C[C@@H]1Cc2c(ccc3[nH]ncc23)[C@@H](c2c(F)cc(OCCN3CC(CF)C3)cc2F)N1CC(C)(C)F` the solubility kinetic was 1 µM (≈ 0.505 µg/mL). For `C[C@@H]1Cc2c([nH]c3ccccc23)[C@@H](c2c(F)cc(OC3CN(CCCF)C3)cc2F)N1CC(C)(C)F`, the solubility kinetic was 1 µM (≈ 0.504 µg/mL). With `C[C@@H]1Cc2c([nH]c3ccccc23)[C@@H](c2c(F)cc(OC3CN(CCCO)C3)cc2F)N1CC(F)(F)CO` the solubility kinetic was 163 µM (≈ 85 µg/mL).

Test system: not listed separately
Test: in vitro
Settings: human, microsomes
With `C[C@@H]1Cc2c([nH]c3cccc(F)c23)[C@@H](c2c(F)cc(NC3CN(CCCF)C3)cc2F)N1CC(F)(F)CO` the CLint scaled at 1 h, 1 µM was 12 mL/min/kg. In the case of `C[C@@H]1Cc2c([nH]c3ccccc23)[C@@H](c2c(F)cc(N[C@H]3CCN(CCCF)C3)cc2F)N1CC(F)(F)CO`, the CLint scaled at 1 h, 1 µM is reported as 11 mL/min/kg. Compound `C[C@@H]1Cc2c([nH]c3ccccc23)[C@@H](c2c(F)cc(NCCNCCCF)cc2F)N1CC(F)(F)CO` has a CLint scaled at 1 h, 1 µM of 7 mL/min/kg. With `C[C@@H]1Cc2c([nH]c3ccccc23)[C@@H](c2c(F)cc(NC3CN(CCC(F)F)C3)cc2F)N1CC(F)(F)CO` the CLint scaled at 1 h, 1 µM was 12 mL/min/kg. In the case of `C[C@@H]1Cc2c(ccc3[nH]ncc23)[C@@H](c2c(F)cc(OCCN3CC(CF)C3)cc2F)N1CC(C)(C)F`, the CLint scaled at 1 h, 1 µM is reported as 17 mL/min/kg. In the case of `C[C@@H]1Cc2c([nH]c3ccccc23)[C@@H](c2c(F)cc(OC3CN(CCCO)C3)cc2F)N1CC(F)(F)CO`, the CLint scaled at 1 h, 1 µM is reported as 9 mL/min/kg.

Test system: not listed separately
Test: in vitro
Settings: rat, hepatocytes
`CC/C(=C(/c1ccc(/C=C/C(=O)O)cc1)c1ccc2[nH]ncc2c1)c1ccc(F)cc1Cl` [BRILANESTRANT] gave a CLint scaled at 1 h of 6 mL/min/kg. Work on `C[C@@H]1Cc2c([nH]c3cccc(F)c23)[C@@H](c2c(F)cc(NC3CN(CCCF)C3)cc2F)N1CC(F)(F)CO` yielded a CLint scaled at 1 h of 23 mL/min/kg. With `C[C@@H]1Cc2c([nH]c3ccccc23)[C@@H](c2c(F)cc(OC3CN(CCCF)C3)cc2F)N1CC(C)(C)F` the CLint scaled at 1 h was 29 mL/min/kg.

Test system: not listed separately
Test: in vitro
Settings: rat, microsomes
`C[C@@H]1Cc2c([nH]c3cccc(F)c23)[C@@H](c2c(F)cc(NC3CN(CCCF)C3)cc2F)N1CC(F)(F)CO` gave a CLint scaled at 1 h, 1 µM of 19 mL/min/kg. With `C[C@@H]1Cc2c([nH]c3ccccc23)[C@@H](c2c(F)cc(N[C@H]3CCN(CCCF)C3)cc2F)N1CC(F)(F)CO` the CLint scaled at 1 h, 1 µM was 26 mL/min/kg. In the case of `C[C@@H]1Cc2c([nH]c3ccccc23)[C@@H](c2c(F)cc(NCCNCCCF)cc2F)N1CC(F)(F)CO`, the CLint scaled at 1 h, 1 µM is reported as < 6 mL/min/kg. `C[C@@H]1Cc2c([nH]c3ccccc23)[C@@H](c2c(F)cc(NC3CN(CCC(F)F)C3)cc2F)N1CC(F)(F)CO` showed a CLint scaled at 1 h, 1 µM of 25 mL/min/kg. Work on `C[C@@H]1Cc2c(ccc3[nH]ncc23)[C@@H](c2c(F)cc(OCCN3CC(CF)C3)cc2F)N1CC(C)(C)F` yielded a CLint scaled at 1 h, 1 µM of 44 mL/min/kg. In the case of `C[C@@H]1Cc2c([nH]c3ccccc23)[C@@H](c2c(F)cc(OC3CN(CCCO)C3)cc2F)N1CC(F)(F)CO`, the CLint scaled at 1 h, 1 µM is reported as 10 mL/min/kg.

Test system: not listed separately
Test: Apparent permeability in MDCK cells across apical to basolateral side at 10 uM incubated for 3 hrs by LC-MS/MS analysis
Settings: dog
In the case of `CC/C(=C(/c1ccc(/C=C/C(=O)O)cc1)c1ccc2[nH]ncc2c1)c1ccc(F)cc1Cl` [BRILANESTRANT], the Papp A→B at 3 h, 10 µM is reported as 2.3 ×10⁻⁶ cm/s. `C[C@@H]1Cc2c([nH]c3cccc(F)c23)[C@@H](c2c(F)cc(NC3CN(CCCF)C3)cc2F)N1CC(F)(F)CO` showed a Papp A→B at 3 h, 10 µM of 0.9 ×10⁻⁶ cm/s. Work on `C[C@@H]1Cc2c([nH]c3ccccc23)[C@@H](c2c(F)cc(OC3CN(CCCF)C3)cc2F)N1CC(C)(C)F` yielded a Papp A→B at 3 h, 10 µM of 0.4 ×10⁻⁶ cm/s.

Target: T1, Estrogen receptor (Homo sapiens, UniProt P03372)
T1 sequence (P03372 whole entry): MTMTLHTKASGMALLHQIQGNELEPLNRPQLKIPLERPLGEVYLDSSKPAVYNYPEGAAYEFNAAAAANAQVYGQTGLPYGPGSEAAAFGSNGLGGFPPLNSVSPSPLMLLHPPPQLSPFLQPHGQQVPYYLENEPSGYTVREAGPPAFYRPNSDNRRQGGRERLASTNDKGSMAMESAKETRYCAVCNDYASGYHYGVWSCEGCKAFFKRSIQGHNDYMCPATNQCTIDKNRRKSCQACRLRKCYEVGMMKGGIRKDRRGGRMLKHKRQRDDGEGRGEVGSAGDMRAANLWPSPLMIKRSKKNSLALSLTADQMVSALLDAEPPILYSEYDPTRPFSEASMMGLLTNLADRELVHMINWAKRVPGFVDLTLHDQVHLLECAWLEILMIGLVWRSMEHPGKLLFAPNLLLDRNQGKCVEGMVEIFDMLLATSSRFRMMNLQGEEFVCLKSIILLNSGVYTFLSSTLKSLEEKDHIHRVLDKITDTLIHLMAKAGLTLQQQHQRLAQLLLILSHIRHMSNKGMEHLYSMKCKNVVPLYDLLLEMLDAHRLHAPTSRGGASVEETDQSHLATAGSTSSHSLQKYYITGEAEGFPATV
Test: not given
Settings: mcf7
`C[C@@H]1Cc2c([nH]c3cccc(F)c23)[C@@H](c2c(F)cc(NC3CN(CCCF)C3)cc2F)N1CC(F)(F)CO` showed a DC50 of 40 pM. With `C[C@@H]1Cc2c([nH]c3ccccc23)[C@@H](c2c(F)cc(N[C@H]3CCN(CCCF)C3)cc2F)N1CC(F)(F)CO` the DC50 was 160 pM. Work on `C[C@@H]1Cc2c([nH]c3ccccc23)[C@@H](c2c(F)cc(NCCNCCCF)cc2F)N1CC(F)(F)CO` yielded a DC50 of 270 pM. `C[C@@H]1Cc2c([nH]c3ccccc23)[C@@H](c2c(F)cc(NC3CN(CCC(F)F)C3)cc2F)N1CC(F)(F)CO` showed a DC50 of 20 pM. `C[C@@H]1Cc2c(ccc3[nH]ncc23)[C@@H](c2c(F)cc(OCCN3CC(CF)C3)cc2F)N1CC(C)(C)F` showed a DC50 of 60 pM. In the case of `C[C@@H]1Cc2c([nH]c3ccccc23)[C@@H](c2c(F)cc(OC3CN(CCCO)C3)cc2F)N1CC(F)(F)CO`, the DC50 is reported as 30 pM.

Test system: not listed separately
Test: in vivo
Settings: Sprague-Dawley, rat, po, 1 mg/kg
Work on `C[C@@H]1Cc2c([nH]c3ccccc23)[C@@H](c2c(F)cc(OC3CN(CCCF)C3)cc2F)N1CC(C)(C)F` yielded a bioavailability of 31%.

Test system: MCF7
Test: cells
Settings: Homo sapiens, MCF7, 72 h
Description: Antiproliferative activity against human MCF-7 cells incubated for 72 hrs by Cell-titer Glo assay
`CC/C(=C(/c1ccc(/C=C/C(=O)O)cc1)c1ccc2[nH]ncc2c1)c1ccc(F)cc1Cl` [BRILANESTRANT] gave an EC50 of 17000 pM. `C[C@@H]1Cc2c([nH]c3cccc(F)c23)[C@@H](c2c(F)cc(NC3CN(CCCF)C3)cc2F)N1CC(F)(F)CO` showed an EC50 of 500 pM. For `C[C@@H]1Cc2c([nH]c3ccccc23)[C@@H](c2c(F)cc(N[C@H]3CCN(CCCF)C3)cc2F)N1CC(F)(F)CO`, the EC50 was 300 pM. `C[C@@H]1Cc2c([nH]c3ccccc23)[C@@H](c2c(F)cc(NCCNCCCF)cc2F)N1CC(F)(F)CO` showed an EC50 of 600 pM. Work on `C[C@@H]1Cc2c([nH]c3ccccc23)[C@@H](c2c(F)cc(NC3CN(CCC(F)F)C3)cc2F)N1CC(F)(F)CO` yielded an EC50 of 800 pM. `C[C@@H]1Cc2c(ccc3[nH]ncc23)[C@@H](c2c(F)cc(OCCN3CC(CF)C3)cc2F)N1CC(C)(C)F` gave an EC50 of 800 pM. With `C[C@@H]1Cc2c([nH]c3ccccc23)[C@@H](c2c(F)cc(OC3CN(CCCF)C3)cc2F)N1CC(C)(C)F` the EC50 was 700 pM. For `C[C@@H]1Cc2c([nH]c3ccccc23)[C@@H](c2c(F)cc(OC3CN(CCCO)C3)cc2F)N1CC(F)(F)CO`, the EC50 was 600 pM.

Test system: not listed separately
Test: in vivo
Settings: Sprague-Dawley, rat, po, 5 mg/kg
With `CC/C(=C(/c1ccc(/C=C/C(=O)O)cc1)c1ccc2[nH]ncc2c1)c1ccc(F)cc1Cl` [BRILANESTRANT] the bioavailability was 30%.

Test system: not listed separately
Test: Distribution coefficient, logD of the compound at pH 7.4
Settings: octanol/water
For `CC/C(=C(/c1ccc(/C=C/C(=O)O)cc1)c1ccc2[nH]ncc2c1)c1ccc(F)cc1Cl` [BRILANESTRANT], the logD was 3.8. In the case of `C[C@@H]1Cc2c([nH]c3cccc(F)c23)[C@@H](c2c(F)cc(NC3CN(CCCF)C3)cc2F)N1CC(F)(F)CO`, the logD is reported as 3.3. With `C[C@@H]1Cc2c([nH]c3ccccc23)[C@@H](c2c(F)cc(OC3CN(CCCF)C3)cc2F)N1CC(C)(C)F` the logD was 4.8.

Target: T2, Estrogen receptor (Homo sapiens) (UniProt P03372)
T2 sequence (whole entry): T1 sequence (P03372 whole entry)
Test: not given
Settings: MCF7, dose 0.0002-100 nM, time 4.0 hrs
With `C[C@@H]1Cc2c([nH]c3ccccc23)[C@@H](c2c(F)cc(NCCNCCCF)cc2F)N1CC(F)(F)CO` the Emax was 90%.

Target: T1, Estrogen receptor
Test: not given
Settings: not given
Work on `C[C@@H]1Cc2c([nH]c3cccc(F)c23)[C@@H](c2c(F)cc(NC3CN(CCCF)C3)cc2F)N1CC(F)(F)CO` yielded an IC50 of 150 pM. `C[C@@H]1Cc2c([nH]c3ccccc23)[C@@H](c2c(F)cc(NC3CN(CCC(F)F)C3)cc2F)N1CC(F)(F)CO` showed an IC50 of 90 pM. With `C[C@@H]1Cc2c(ccc3[nH]ncc23)[C@@H](c2c(F)cc(OCCN3CC(CF)C3)cc2F)N1CC(C)(C)F` the IC50 was 200 pM. In the case of `C[C@@H]1Cc2c([nH]c3ccccc23)[C@@H](c2c(F)cc(OC3CN(CCCO)C3)cc2F)N1CC(F)(F)CO`, the IC50 is reported as 80 pM.

Test system: not listed separately
Test: Clearance in Sprague-Dawley rat at 1 mg/kg, iv or po measured after 0.033 to 24 hrs by LC/MS/MS analysis
Settings: in vivo
In the case of `CC/C(=C(/c1ccc(/C=C/C(=O)O)cc1)c1ccc2[nH]ncc2c1)c1ccc(F)cc1Cl` [BRILANESTRANT], the clearance is reported as 40 mL/min/kg. In the case of `C[C@@H]1Cc2c([nH]c3ccccc23)[C@@H](c2c(F)cc(OC3CN(CCCF)C3)cc2F)N1CC(C)(C)F`, the clearance is reported as 19 mL/min/kg.

Test system: not listed separately
Test: in vitro
Settings: human, hepatocytes
`CC/C(=C(/c1ccc(/C=C/C(=O)O)cc1)c1ccc2[nH]ncc2c1)c1ccc(F)cc1Cl` [BRILANESTRANT] showed a CLint scaled at 1 h of 15 mL/min/kg. Work on `C[C@@H]1Cc2c([nH]c3cccc(F)c23)[C@@H](c2c(F)cc(NC3CN(CCCF)C3)cc2F)N1CC(F)(F)CO` yielded a CLint scaled at 1 h of 12 mL/min/kg. With `C[C@@H]1Cc2c([nH]c3ccccc23)[C@@H](c2c(F)cc(OC3CN(CCCF)C3)cc2F)N1CC(C)(C)F` the CLint scaled at 1 h was 7 mL/min/kg.

Test system: not listed separately
Test: in vivo
Settings: Sprague-Dawley, rat, iv, 1 mg/kg
`C[C@@H]1Cc2c([nH]c3cccc(F)c23)[C@@H](c2c(F)cc(NC3CN(CCCF)C3)cc2F)N1CC(F)(F)CO` gave a clearance of 27 mL/min/kg. `C[C@@H]1Cc2c([nH]c3ccccc23)[C@@H](c2c(F)cc(OC3CN(CCCF)C3)cc2F)N1CC(C)(C)F` gave a clearance of 19 mL/min/kg.

From ChEMBL document CHEMBL4825708 (J Med Chem, 2021)
